Consider four compounds from patent US5280015A, “2-substituted adenosines and 2-substituted adenosine 5'-carboxamides” (priority 1990, dated 1994).

Like-named read-outs stand apart in the source and are kept apart here.

Test [1] relates to striatal A2-adenosine receptors. Briefly: Direct binding of 125I-PAPA-APEC to striatal A2-adenosine receptors in bovine brain. The conditions noted are these: HPLC peak B.
The target of test [2] is striatal A2-adenosine receptors. The following applies: Barrington et al., 1989, cited from earlier work.
Test [3] relates to A2-adenosine receptors. Description: Competitive binding assay in bovine brain using 125I-PAPA-APEC (striatal membranes). As for the experimental part: (§1) The filters were washed with three×3 ml aliquots of pH 7.2 buffer containing 50 mM HEPES, 10 mM Mg^+2, and 0.05% CHAPS. The filters were placed in polypropylene tubes and counted in a Packard gamma counter.
A further test has as its target T1, adenosine A2 receptors (Bos taurus, UniProt E1BKU0).
T1 construct: Striatal tissues obtained from bovine brain; tissue Pel-Freeze Biologicals, Rogers, Ark; host or cells: bovine striatal tissue
Briefly: FITC-APEC fluorescent binding (association and saturation) to bovine striatal membranes. The text has this: Compounds useful in fluorescent binding assays of adenosine A2 receptors in striatal membranes may be used to screen new ligands for affinity at these receptors, thus contributing to the development of new drugs specific or selective to this receptor. […] The following is an example.
Striatal tissues obtained from bovine brain (Pel-Freeze, Biologicals, Rogers, Ark.) were homogenized in 10 volumes of 0.32M sucrose using a Teflon pestle and glass tube (6-7 passes). The homogenate was centrifuged (4° C.) at 579×g (2,000 rpm) for 10 minutes 4° C.). The initial pellet (P1) was discarded and supernatant recentrifuged at 4° C. (16,000 rpm) for 1 hour. The resultant pellet (P2) was resuspended in ice-cold distilled water using a Brinkman Polytron (setting 6-7, for 3 seconds) and centrifuged (4° C.) at 37,059×g for 1 hour. The distilled water supernatant was decanted and the pellet was resuspended in buffer (50 mM TrisHCl, pH 7.4 at 4° C.) and centrifuged a final time for 1 hour. Tissue homogenates were […] at -80° C. for 1-3 days until binding assays were performed. Adenosine deaminase, (Boehringer Mannheim Biochemicals, Indianapolis, Ind.) from calf intestine was included (10 μ/mg protein, specific activity=200μ/mg) in the incubation media to eliminate endogenous adenosine. Protein quantities were assessed by using the Pierce BCA Protein Assay Reagent (Rockford, Ill.). Protein quantities were ~300μg/assay tube.
Fluorescence intensity (counts per second, cps) was measured using a SPEX Fluorolog Model 1680 0.22-m Double Spectrometer with DM3000 software (SPEX Industries, Edison, N.J.). Excitation and emission spectra were determined by comparing FITC-APEC (Compound 18, 1 μM) to buffer ([…] containing […], pH 7.4 or 8.1 at room temperature) or tissue suspension equivalent in concentration to that used for fluorescent ligand binding experiments. Excitation and emission maxima for FITC-APEC were 492 and 516 nm, respectively.
Association studies of FITC-APEC were performed by incubating (room temperature) striatal membranes in polypropylene tubes containing buffer (pH 7.4) and FITC-APEC (50 nM) for 5-120 minutes. […]
Quantitation (see McCabe et al. Faseb J., Vol. 4, pp 2934-2945, 1990) of FITC-APEC binding was performed by generating a standard line relating fluorescence intensity (cps) emitted to known concentrations (0.5-1024 nM) of FITC-APEC, in buffer ("free" ligand) or tissue suspension.
Bound ligand concentrations (μM) were estimated using linear regression analysis and mole quantities of FITC-APEC bound/mg protein were subsequently determined.

The target in test [4] is T2, A2 adenosine receptors (Bos taurus, UniProt E1BKU0). Description: Displacement of 125I-APNEA from bovine striatum A2 adenosine receptors. In kind it is binding. Also on record: bovine striatum A2 adenosine receptors; from tissue; host or cells: bovine striatum. The text has this:
FITC-APEC binding to bovine striatal membranes was saturable as illustrated by an isotherm representing bound ligand versus increasing concentrations of FITC-APEC (FIG. 1B).

In test [5] the target is T2, A2 adenosine receptors. Briefly: Competitive binding assay in bovine brain using 125I-PAPA-APEC (striatal membranes). Set-up: Bovine striatal membranes; from tissue; host or cells: bovine (calf) striatal membranes. The following applies: for Ki: bovine striatum, 11, 12 and 14: apparent Ki, read-out: Ki, inhibition of binding of 125I-PAPA-APEC at A2-receptors. The protocol:
as §1

Another test relates to human platelets. Briefly: Increase in cyclic AMP in human platelets. The following applies: for activation at 1 µM: Platelet, read-out: increase in the level of cyclic AMP. In kind it is cell-based.
Test [6] relates to locomotor activity in NIH mice. Description: Locomotor depression by A2 adenosine agonists in mice (Digiscan activity monitor). Format: in vivo, mouse. The conditions noted are these: Mus musculus, ip, read-out: ED50, locomotor depression.
A further test has as its target T3, A1-adenosine receptors (Rattus norvegicus, UniProt P25099).
T3 construct: rat cerebral cortex membranes; from tissue; host or cells: rat cerebral cortex membranes
T3 sequence (P25099 1-326): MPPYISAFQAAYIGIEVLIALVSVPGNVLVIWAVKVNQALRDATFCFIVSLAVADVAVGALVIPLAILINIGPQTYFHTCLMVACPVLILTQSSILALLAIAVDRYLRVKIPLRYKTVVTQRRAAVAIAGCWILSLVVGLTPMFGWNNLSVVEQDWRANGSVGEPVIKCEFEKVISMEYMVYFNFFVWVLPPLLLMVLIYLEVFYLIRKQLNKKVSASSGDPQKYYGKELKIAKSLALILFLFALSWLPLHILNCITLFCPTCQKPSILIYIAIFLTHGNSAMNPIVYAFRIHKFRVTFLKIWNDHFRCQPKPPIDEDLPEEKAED
Description: Competitive binding assay at A1-adenosine receptors, rat cerebral cortex membranes ([3H]PIA or [3H]CHA). The conditions noted are these: rat; [3H]PIA; read-out: Ki, inhibition of binding of [3H]PIA at A1-receptors.

In test [7] the target is T4, A2-adenosine receptors (Rattus norvegicus, UniProt P30543).
T4 construct: rat striatal membranes; from tissue; host or cells: rat striatal membranes
T4 sequence (P30543 whole entry): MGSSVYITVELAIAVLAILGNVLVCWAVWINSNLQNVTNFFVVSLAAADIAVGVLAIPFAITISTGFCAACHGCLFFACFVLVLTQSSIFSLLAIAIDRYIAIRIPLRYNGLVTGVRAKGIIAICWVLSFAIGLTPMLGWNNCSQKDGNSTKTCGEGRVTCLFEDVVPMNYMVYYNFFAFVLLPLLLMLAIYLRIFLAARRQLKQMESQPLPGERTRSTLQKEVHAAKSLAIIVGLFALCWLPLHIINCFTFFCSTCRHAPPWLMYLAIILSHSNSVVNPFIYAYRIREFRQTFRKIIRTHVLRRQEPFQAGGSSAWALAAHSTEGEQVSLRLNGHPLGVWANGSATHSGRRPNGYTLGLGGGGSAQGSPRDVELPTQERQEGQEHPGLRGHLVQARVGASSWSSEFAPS
Description: Inhibition of binding of [3H]CGS21680 to A2-adenosine receptors in rat striatal membranes. The following applies: read-out: Ki, inhibition of binding of [3H]CGS21680 at A2-receptors. As for the experimental part: Stock solutions of representative compounds of the present invention in the millimolar concentration range in dimethylsulfoxide were prepared for the binding assays. […] Protein was determined using the BCA (based on the complex with cuprous ions and bicinchoninic acid) protein assay reagents purchased from Pierce Chemical Co., Rockford, Ill.
The membrane suspension was then centrifuged at 37,000×g for 20 min at 4° C. The pellet was resuspended in buffer containing 2 IU/ml adenosine deaminase, Type VI from calf intestinal mucosa (Sigma, St. Louis, Mo.) to 20 mg/ml original tissue weight and incubated at 37° C. for 30 min. The membrane homogenate was recentrifuged as before, and the pellet was stored frozen at -70° C. until use.
For competitive binding assays using [^3 H]CGS21680, a volume of 1 ml was used in each 13×100 mm glass tube. […] The mixture was incubated with shaking for 90 min at 24° C. The samples were filtered on a Brandel Cell Harvester (Brandel, Gaithersburg, Md.) with Whatman GF/B filters, and washed rapidly twice with 5 ml of ice cold 50 mM Tris, pH 7.4. Each filter disc was added to 4 ml of scintillation fluid, vortexed, and counted after 6 hours.

The mark [8] stands for this setting: bovine striatal membranes, fluorescence, 90 min, room temperature.

T1 sequence (E1BKU0 1-401): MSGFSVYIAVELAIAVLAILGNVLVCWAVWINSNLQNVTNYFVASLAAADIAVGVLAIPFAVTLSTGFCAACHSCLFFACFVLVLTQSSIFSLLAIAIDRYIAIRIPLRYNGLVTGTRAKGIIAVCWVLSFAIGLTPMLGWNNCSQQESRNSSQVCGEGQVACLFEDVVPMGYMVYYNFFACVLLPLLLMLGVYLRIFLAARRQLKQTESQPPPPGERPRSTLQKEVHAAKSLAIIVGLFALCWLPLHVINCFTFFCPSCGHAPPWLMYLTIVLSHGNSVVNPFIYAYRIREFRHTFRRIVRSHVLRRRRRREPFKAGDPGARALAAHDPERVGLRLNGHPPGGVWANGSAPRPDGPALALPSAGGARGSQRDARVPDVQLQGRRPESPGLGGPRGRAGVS
T2 sequence (E1BKU0 1-401): as above

In general, Kd refers to the free concentration of one partner at which half of the binding sites on the other are occupied at equilibrium, for simple one-to-one binding. As to `CCNC(=O)[C@H]1O[C@@H](n2cnc3c(N)nc(NCCc4ccc(CCC(=O)NCCNC(=O)Cc5ccc(N)c([125I])c5)cc4)nc32)[C@H](O)[C@@H]1O` [^125 I-PAPA-APEC], the “specific binding and A2 receptor pharmacology” value in [1] is “display specific binding and the appropriate A2 receptor pharmacology”. In addition, the Kd in test [2] (bovine brain striatum) was 1.4 nM. In addition, in test [2] (striatal A2-adenosine receptors, bovine brain), the “degree of specific binding” value is given as 60-80%.
In the case of `CCNC(=O)[C@H]1O[C@@H](n2cnc3c(N)nc(NCCc4ccc(CCC(=O)NCCNC(=S)Nc5ccc(-c6c7ccc(=O)cc-7oc7cc(O)ccc67)c(C(=O)O)c5)cc4)nc32)[C@H](O)[C@@H]1O` [Compound 18], the “affinity at A2-adenosine receptors” value with A2-adenosine receptors [3] (fluorescent probes, derivatives in general) is reported as “high affinity”. The “saturability of binding” value at adenosine A2 receptors (bovine striatal membranes, 16-256 nM) is recorded as “saturable”. On adenosine A2 receptors (setting [8]), this compound had a Bmax of 2.26 pmol/mg protein and a Kd of 54.6 nM. For the same compound, the “time to binding equilibrium” value on adenosine A2 receptors (bovine striatum, room temperature, FITC-APEC 50 nM) was not above 90 min. At A2 adenosine receptors [4], this compound came in with a Ki of 59.8 ± 28 nM. Besides, at A2 adenosine receptors [5], the Ki worked out at 59.8 ± 28 nM.
Broadly, the ED50 is the dose at which the effect has come halfway, by size or by number of responders. In the case of `CCNC(=O)[C@H]1O[C@@H](n2cnc3c(N)ncnc32)[C@H](O)[C@@H]1O` [NECA, 5'-N-ethylcarboxamidoadenosine, reference compound], in the test with human platelets (Homo sapiens), the activation at 1 µM worked out at 35%. The ED50 in [6] was determined as 2 µg/kg.
With `CCNC(=O)[C@H]1O[C@@H](n2cnc3c(N)nc(NCCc4ccc(CCC(=O)NCCNC(=O)Cc5ccc(N)cc5)cc4)nc32)[C@H](O)[C@@H]1O` [Compound 6], the Ki on A1-adenosine receptors was 1340 nM; on A2-adenosine receptors [7] it was 28 ± 7 nM; on A2 adenosine receptors [5], 43 ± 14 nM. In addition, in the test on A2-adenosine receptors [3] (ratio of Ki at A1-receptors (rat) versus Ki in the 125I-PAPA-APEC assay (bovine)), the “Ki (A1)/K1 (A2)” value is 31. Also, the activation at 1 µM with human platelets (human platelets, 10^-6 M) turned out to be 40%. The “increase in cyclic AMP” value in the test on human platelets (human platelets, 1 nM to 10 μM) was “dose dependent increase in cyclic AMP”. Also, on A2 adenosine receptors [5] (bovine brain A2, relative to compounds with Ki less than 10 nM), the “potency in displacing 125I-PAPA-APEC binding” value is on record as “less potent”.
